Measured values reported in patent US20150272979A1, “COMBINATION THERAPEUTIC COMPOSITION” (Hoffman La-Roche Inc., priority 2012, published 2015).

Columns and labels:
HCV replication = details: general statement; cited from earlier work
[1] = system: CYP isozymes including 3A4, 2C19, 1A2, 2D6, and 2C9; assay: Cytochrome P450 phenotyping using chemical inhibitors; assay type: in vitro ADME; details: early preclinical studies
Excerpt: (§1) Therefore, a cytochrome P450 monooxygenase inhibitor in an amount effective to inhibit metabolism of the protease inhibitor could increase the bioavailability of Compound 2 compared to administration in the absence of the CYP inhibitor.

CYP3A4 = CYP3A4 (Homo sapiens, UniProt P08684); assay: Metabolism by recombinant CYPs; assay type: in vitro ADME
Excerpt: as §1

CYP3A4, sequence (P08684 whole entry): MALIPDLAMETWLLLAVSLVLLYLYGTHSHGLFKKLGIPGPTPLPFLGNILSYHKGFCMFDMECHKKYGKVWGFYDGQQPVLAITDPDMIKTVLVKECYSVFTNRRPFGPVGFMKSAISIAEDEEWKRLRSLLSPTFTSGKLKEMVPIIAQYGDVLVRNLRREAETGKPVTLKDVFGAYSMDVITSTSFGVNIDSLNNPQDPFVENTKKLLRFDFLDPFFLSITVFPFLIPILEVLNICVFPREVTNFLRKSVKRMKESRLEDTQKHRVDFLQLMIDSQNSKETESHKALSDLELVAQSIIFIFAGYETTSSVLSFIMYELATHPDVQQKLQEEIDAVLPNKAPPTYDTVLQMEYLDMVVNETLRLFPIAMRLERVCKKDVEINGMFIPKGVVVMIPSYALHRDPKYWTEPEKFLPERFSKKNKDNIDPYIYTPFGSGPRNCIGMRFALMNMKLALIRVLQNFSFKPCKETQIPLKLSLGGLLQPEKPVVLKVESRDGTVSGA

**Q.** For `CC(C)(C)OC(=O)N[C@H]1CCCCC/C=C\[C@@H]2C[C@@]2(C(=O)NS(=O)(=O)C2CC2)NC(=O)[C@@H]2C[C@@H](OC(=O)N3Cc4cccc(F)c4C3)CN2C1=O` [Compound 2, (1S,4R,6S,14S,18R)-4-Fluoro-1,3-dihydro-isoindole-2-carboxylic acid 14-tert-butoxycarbonylamino-4-cyclopropanesulfonylaminocarbonyl-2,15-dioxo-3,16-diaza-tricyclo[14.3.0.04,6]nonadec-7-en-18-yl ester], which “Inhibition of HCV replication” value (HCV replication) is on record?
**A.** Its value is “effective in inhibiting HCV replication”.

**Q.** What about the “CYP isozymes participating in metabolism” value [1] of the same compound?
**A.** The value was “multiple CYP isozymes including 3A4, 2C19, 1A2, 2D6, and 2C9 participate in the metabolism”.

**Q.** And the “Metabolism by recombinant CYPs” value (CYP3A4)?
**A.** Its value is “only CYP3A4 metabolized Compound 2 to an extent that could influence the pharmacokinetics”.

**Q.** With `CS(=O)(=O)Nc1ccc2c(c1)S(=O)(=O)N=C(C1=C(O)C3C([C@@H]4CC[C@H]3C4)N(Cc3ccc(F)cc3)C1=O)N2` (stereo partly shown) [Compound 3] as the compound, how does the “Inhibition of HCV replication” value (HCV replication) read?
**A.** Its value is “effective in inhibiting HCV replication”.
